Drawing on patent publication US8901313B2, “6,5-heterocyclic propargylic alcohol compounds and uses therefor” (Genentech, Inc., priority 2011, dated 2014), this text covers IC50 and Ki for 13 molecules.

Test [1] concerns human embryonic kidney 293 cells. As to the kind of experiment: 293-NIK TK Renilla Luciferase reporter (general measure of cell viability). The settings on record: HEK293, 293 cells, constitutive Renilla luciferase, 24 hours, read-out: inhibitory value (IC50) for 293-NIK TK Renilla Luciferase activity. In kind it is cell-based. The text has this:
(1) The first assay was used to profile whether a test compound can inhibit the NF-kB signally through NIK inhibition without affecting cell viability. In this assay, human embryonic kidney 293 cells was stably transfected with a tetracycline-inducible NIK DNA construct containing a cytomegalovirus promoter plus two reporter DNA constructs. One reporter encoded firefly luciferase under the control of three repeats of an NF-kB response element from the ELAM-1 gene and reflects the level of NIK activity in the cells, whereas the other reporter constitutively expressed Renilla luciferase under the control of the herpes simplex virus thymidine kinase promoter and served as a general measure of cell viability. Cells were incubated with different concentrations of compounds (0.2% DMSO final) in medium containing 1 ug/mL doxycycline and 10% tet-system approved fetal bovine serum (Clontech) for 24 hours, after which the reporters' signals were detected using the Dual Glo luciferase detection system (Promega) according to the vendor's protocol. The compounds listed in Table 1 have the corresponding inhibitory value (IC50 in micromolar) for 293-NIK NF-kB-Luciferase activity (values for compounds are presented in the same order as found in Table 1): na, 0.059, na, na, na, 0.105, 0.027, na, 20, 1.2, na, 1.8, 0.0231, 0.879, 0.0361, 0.582, na, 0.142, na, 0.403, 0.059, 0.0331, na, na, 0.0573, 1.5, na, na, 0.0722, na, na, 0.589, 12.7, 3.7, 14.9, na, 0.707, 1, 0.0311, 0.332, 0.309, 0.0142, 0.051, 2.8, 0.129, na, na, 1.5, na, na, na, 1.3, 0.062, 20, 0.31, 0.104, 0.091, 0.037, 0.085, 0.279, na, 0.305, 0.064, 0.332, 0.133, 0.168, 0.217, 0.553, na and na.
The compounds in listed in Table 1 have the corresponding inhibitory value (IC50 in micromolar) for 293-NIK TK Renilla Luciferase activity: (values for compounds are presented in the same order as found in Table 1): 6.4, 3.6, 20, na, 1.6, 9.3, 18.5, na, na, 2.6, na, na, na, na, na, na, na, na, na, na, na, na, na, na, na, na, na, na, na, na, na, na, na, na, na, na, na, na, na, na, na, na, na, na, na, na, na, >20, na, na, na, 20, >20, 17, 1.3, 15.6, 0.967, 2.7, 11.2, 5.1, na, 20, 20, 20, 20, 20, 17.6, 20, na and na.
For orientation: Reporter assays use an easily measured gene product as a stand-in for the process of interest.

For test [2], the target named is T1, nuclear factor-kappa B (NF-kB)-inducing kinase (NIK) (Homo sapiens, UniProt Q99558).
T1 construct: made in house; host or cells: baculovirus-infected insect cells
T1 sequence (Q99558 whole entry): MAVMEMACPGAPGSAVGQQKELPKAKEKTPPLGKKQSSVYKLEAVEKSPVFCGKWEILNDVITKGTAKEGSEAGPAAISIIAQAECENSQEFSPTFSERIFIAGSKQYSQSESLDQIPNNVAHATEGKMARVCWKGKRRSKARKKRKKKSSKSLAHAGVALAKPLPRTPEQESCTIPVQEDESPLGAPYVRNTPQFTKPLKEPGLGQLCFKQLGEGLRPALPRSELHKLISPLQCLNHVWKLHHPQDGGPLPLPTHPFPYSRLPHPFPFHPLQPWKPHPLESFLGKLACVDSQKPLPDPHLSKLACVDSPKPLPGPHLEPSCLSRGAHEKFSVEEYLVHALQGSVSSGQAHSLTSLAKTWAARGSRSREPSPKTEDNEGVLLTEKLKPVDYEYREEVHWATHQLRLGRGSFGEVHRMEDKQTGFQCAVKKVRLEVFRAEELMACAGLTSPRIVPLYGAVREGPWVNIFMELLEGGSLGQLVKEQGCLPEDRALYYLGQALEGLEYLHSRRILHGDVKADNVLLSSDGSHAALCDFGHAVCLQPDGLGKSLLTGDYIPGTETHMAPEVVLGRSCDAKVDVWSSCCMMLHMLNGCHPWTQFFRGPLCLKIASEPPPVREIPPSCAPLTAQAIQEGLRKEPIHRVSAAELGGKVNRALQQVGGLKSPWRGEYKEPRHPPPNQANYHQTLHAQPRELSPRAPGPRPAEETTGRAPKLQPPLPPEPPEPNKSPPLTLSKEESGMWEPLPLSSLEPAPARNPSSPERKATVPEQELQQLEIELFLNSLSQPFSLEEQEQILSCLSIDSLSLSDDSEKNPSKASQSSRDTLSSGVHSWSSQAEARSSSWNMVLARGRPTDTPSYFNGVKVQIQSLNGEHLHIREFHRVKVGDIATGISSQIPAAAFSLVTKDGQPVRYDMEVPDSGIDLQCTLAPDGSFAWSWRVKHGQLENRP
As to the kind of experiment: NIK Enzyme Inhibition Assay (Transcreener ADP assay). In kind it is biochemical. As to conditions: purified NIK 0.2-1 nM, 10 uM ATP, fluorescence polarization, Morrison's quadratic equation; read-out: inhibitory value (Ki) for NIK. (Polarisation of emitted light reports the rotation of a fluorescent probe.)

Test [3] relates to NF-kB signaling through NIK in human embryonic kidney 293 cells. As to the kind of experiment: 293-NIK NF-kB-Luciferase reporter assay. In kind it is cell-based. As to conditions: HEK293, 293 cells with tetracycline-inducible NIK, 1 ug/mL doxycycline, 24 hours, read-out: inhibitory value (IC50) for 293-NIK NF-kB-Luciferase activity. In outline:
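HEK293 cells stably carrying tetracycline-inducible NIK plus NF-kB (ELAM-1 element) firefly luciferase and constitutive TK-Renilla viability reporter. Compounds (0.2% DMSO) incubated 24 h with 1 ug/mL doxycycline; Dual Glo luminescence read, IC50 from firefly signal.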

Test [4] relates to p52 (NF-kB2) nuclear translocation in HeLa cells. As to the kind of experiment: NIK p52 Translocation Assay (non-classical NF-kB signaling). It counts as cell-based. As to conditions: Homo sapiens; HeLa cells, 100 ng/mL anti-lymphotoxin beta receptor antibody, 5 hours; read-out: inhibitory value (IC50) for NIK p52 Translocation Assay. The procedure:
(§1) (2) A second set of cell assay was used to define the selectivity of NIK inhibitors toward inhibition of classical vs. non-classical NF-kB signaling and rely on quantification of the nuclear translocation of p52 (NF-kB2) and REL-A (p65) using high content cellular imaging. For the p52 (non-classical NF-kB signaling) nuclear translocation assay, HeLa cells were treated with different concentrations of compounds (0.2% DMSO final) in medium containing 10% fetal bovine serum and then stimulated with 100 ng/mL of an anti-lymphotoxin beta receptor antibody (R&D Systems) for 5 hours. In the REL-A nuclear translocation assay, HeLa cells were incubated with compounds (0.2% DMSO final) for 4.5 hours in medium containing 10% fetal bovine serum before stimulating them with 10 ng/mL tumor necrosis factor (TNF)-α (R&D Systems) for 30 minutes. Cells were fixed with 4% paraformaldehyde, permeabilized by adding 0.1% Triton X-100 in phosphate buffered saline, and then incubated with either 2 ug/mL anti-p52 antibody (Millipore) or 400 ng/mL anti-REL-A (p65) antibody (Santa Cruz Biotechnology). Finally, the cells were incubated with an Alexa488-labeled secondary antibody (Invitrogen) and DRAQ5 DNA stain (Biostatus). Imaging was carried out using an Opera reader (Perkin Elmer) and data are analyzed with the aid of Acapella software (Perkin Elmer). The p52 or REL-A translocation into the nucleus was quantified by the ratio of the nuclear to cytoplasmic signal intensity. The concentration of inhibitor required for 50% inhibition (IC50 values) in these cell assays were derived from the plots of signal vs. inhibitor concentration. The compounds in listed in Table 1 have the corresponding inhibitory value (IC50 in micromolar) for NIK p52 Translocation Assay (values for compounds are presented in the same order as found in Table 1, and “na” means the data for this assay is to be determined): 0.326, 0.33, na, na, na, 0.218, 0.07, na, na, na, 0.129, 7.6, 0.077, 3.4, na, 0.518, na, 0.059, 0.514, 0.127, na, na, 0.010, na, na, 0.313, 0.275, na, 0.0727, na, na, na, na, na, na, 0.194, na, 6.4, 0.22, 0.346, na, na, na and na, na, na, na, na, na, 0.447, na, 0.089, 0.479, 0.489, 0.243, 0.747, 1, na, 1.9, 0.552, 2.1, na. na, na, na, na and na.

Test [5] has as its system REL-A (p65) nuclear translocation in HeLa cells. As to the kind of experiment: NIK RelA Translocation Assay (classical NF-kB signaling). In kind it is cell-based. The settings on record: Homo sapiens; HeLa cells, compounds 4.5 hours, 10 ng/mL TNF-α 30 minutes; read-out: inhibitory value (IC50) for NIK RelA Translocation Assay. Here is the method: as §1
The compounds in listed in Table 1 has the corresponding inhibitory value (IC50 in micromolar) for NIK RelA Translocation Assay (values for compounds are presented in the same order as found in Table 1): 0.326, 0.33, na, na, na, 0.218, 0.07, na, na, na, na, na, 0.129, 7.6, 0.077, 3.4, na, 0.518, na, 0.059, 0.514, 0.127, na, na, 0.010, na, na, 0.313, 0.275, na, na, 0.0727, na, na, na, na, na, na, 0.194, na, 6.4, 0.22, 0.346, na, na, na, na, na, na, na, na, na, 0.447, na, 0.089, 0.479, 0.489, 0.243, 0.747, 1, na, 1.9, 0.552, 2.1, na, na, na, na, na and na.

Molecules are shown by their SMILES.

In the case of `N#Cc1ccc2cnn(-c3ccnc(N)n3)c2c1` [Example T1-3, 1-(2-aminopyrimidin-4-yl)-1H-indazole-6-carbonitrile], in test [1], the IC50 – broadly, the concentration needed to halve the response being measured – is no less than 20000 nM.

Regarding `Nc1nccc(-n2ncc3ccc(C#CC4(O)CCCC4)cc32)n1` [Example T1-5, 1-((1-(2-aminopyrimidin-4-yl)-1H-indazol-6-yl)ethynyl) cyclopentanol], in test [1], the IC50 came out at 1600 nM.

Consider `CC(C)(O)C#Cc1ccc2ncn(-c3ccnc(N)n3)c2c1` [Example T1-10, 4-(1-(2-aminopyrimidin-4-yl)-1H-benzo[d]imidazol-6-yl)-2-methylbut-3-yn-2-ol], for which the values for the IC50 in test [1] and in test [3] were 2600 nM and 1200 nM, respectively. In test [2], the Ki – broadly, the equilibrium dissociation constant of an inhibitor or competing ligand from its target – amounted to 14.3 nM.

As for `Cc1cc(C(C)(O)C#Cc2ccc3c(C)nn(-c4ccnc(N)n4)c3c2)on1` (stereo not shown) [Example T1-48, 4-(1-(2-aminopyrimidin-4-yl)-3-methyl-1H-indazol-6-yl)-2-(3-methylisoxazol-5-yl)but-3-yn-2-ol], the results for the IC50 in test [1] and in test [3] were greater than 20000 nM and 1500 nM, respectively. Besides, in test [2], the Ki is 13 nM.

On to `Cc1cc(C(C)(O)C#Cc2ccc3c(C(=O)N(C)C)nn(-c4ccnc(N)n4)c3c2)on1` (stereo not shown) [Example T1-52, 1-(2-aminopyrimidin-4-yl)-6-(3-hydroxy-3-(3-methyl-isoxazol-5-yl)but-1-ynyl)-N,N-dimethyl-1H-indazole-3-carboxamide], for which the figures for the concentration for half-maximal inhibition (IC50) in test [1], in test [4] and in test [3] were no less than 20000 nM, 89 nM and 1300 nM, respectively. In addition, in test [2], the Ki turned out to be 10 nM.

Consider `Cc1nn(-c2ccnc(N)n2)c2cc(C#CC(C)(O)c3cncs3)ccc12` (stereo not shown) [Example T1-54, 4-(1-(2-aminopyrimidin-4-yl)-3-methyl-1H-indazol-6-yl)-2-(thiazol-5-yl)but-3-yn-2-ol], for which the IC50 came out at 17000 nM in test [1], 489 nM in test [4] and 20000 nM in test [3]. Moreover, the Ki in test [2] stood at 105 nM.

For the molecule `Cc1cc(C(C)(O)C#Cc2ccc3c(C)nn(-c4ccnc(N)n4)c3c2)no1` (stereo not shown) [Example T1-58, 4-(1-(2-aminopyrimidin-4-yl)-3-methyl-1H-indazol-6-yl)-2-(5-methylisoxazol-3-yl)but-3-yn-2-ol], the figures for the IC50 in test [1], in test [5] and in test [3] were 2700 nM, 243 nM and 37 nM, respectively. Also, the Ki in test [2] amounted to 0.15 nM.

For the molecule `Cc1nn(-c2ccnc(N)n2)c2cc(C#CC(C)(O)c3cnccn3)ccc12` (stereo not shown) [Example T1-62, 4-(1-(2-aminopyrimidin-4-yl)-3-methyl-1H-indazol-6-yl)-2-(pyrazin-2-yl)but-3-yn-2-ol], the IC50 is no less than 20000 nM in test [1], 1900 nM in test [5] and 305 nM in test [3]. Besides, the Ki in test [2] is 17 nM.

`C[C@@](O)(C#Cc1ccc2nc(C3CC3)n(-c3ncnc(N)n3)c2c1)c1nccs1` [Example T1-63, (R)-4-(1-(4-amino-1,3,5-triazin-2-yl)-2-cyclopropyl-1H-benzo[d]imidazol-6-yl)-2-(thiazol-2-yl)but-3-yn-2-ol]: the results for the IC50 in test [1], in test [5] and in test [3] were no less than 20000 nM, 552 nM and 64 nM, respectively. Moreover, the Ki in test [2] stood at 0.23 nM.

For the molecule `Cc1cc(C(C)(O)C#Cc2ccc3c(C(=O)N4CCOCC4)nn(-c4ccnc(N)n4)c3c2)no1` (stereo not shown) [Example T1-65, (1-(2-aminopyrimidin-4-yl)-6-(3-hydroxy-3-(5-methyl-isoxazol-3-yl)but-1-ynyl)-1H-indazol-3-yl)(morpholino) methanone], the results for the IC50 in test [1] and in test [3] were no less than 20000 nM and 133 nM, respectively. The Ki in test [2] amounted to 2.65 nM.

Take `Cc1cc(C(C)(O)C#Cc2ccc3c(C(=O)N4CCCC4)nn(-c4ccnc(N)n4)c3c2)no1` (stereo not shown) [Example T1-66, (1-(2-aminopyrimidin-4-yl)-6-(3-hydroxy-3-(5-methyl-isoxazol-3-yl)but-1-ynyl)-1H-indazol-3-yl)(pyrrolidin-1-yl) methanone]: the IC50 in test [1] is no less than 20000 nM; in test [3], 168 nM. Also, in test [2], the Ki stood at 1.27 nM.

As to `Cc1nn(-c2ccnc(N)n2)c2cc(C#CC(C)(O)c3ncccn3)ccc12` (stereo not shown) [Example T1-67, 4-(1-(2-aminopyrimidin-4-yl)-3-methyl-1H-indazol-6-yl)-2-(pyrimidin-2-yl)but-3-yn-2-ol], the IC50 in test [1] is 17600 nM; in test [3] it was 217 nM. The Ki in test [2] turned out to be 4 nM.

For `COCc1nc2ccc(C#C[C@@](C)(O)c3nccs3)cc2n1-c1ncnc(N)n1` [Example T1-68, (R)-4-(1-(4-amino-1,3,5-triazin-2-yl)-2-(methoxymethyl)-1H-benzo[d]imidazol-6-yl)-2-(thiazol-2-yl)but-3-yn-2-ol], the IC50 is no less than 20000 nM in test [1] and 553 nM in test [3]. Besides, in test [2], the inhibition constant Ki was found to be 2.7 nM.
